In US7947834B2, “Substituted quinoxalines, their preparation and their therapeutical use as 11βHSD1 modulators” (Sanofi-Aventis, priority 2006, dated 2011):
Where a name gives a salt, the structure may show the parent alone.

Tests used:
[1] = molecular target: T1, recombinant 11β-HSD1 protein (Homo sapiens, UniProt P28845); experiment: 11β-HSD1 SPA (Scintillation Proximity Assay) enzyme inhibition test, 384-well format; type: biochemical; conditions: 3H-cortisone and NADPH; cortisol formed measured by SPA; read-out: IC50 (concentration which inhibits 50% of the activity of 11β-HSD1)
T1 construct: made in house; host or cells: Saccharomyces cerevisiae
Text: The compounds according to the invention formed the subject of pharmacological tests which make it possible to determine their inhibiting effect on the 11β-HSD1 enzyme, which is an enzyme which is involved in the metabolism of lipids or the metabolism of glucose.
These tests consisted in measuring the in vitro inhibiting activity of the compounds of the invention by virtue of an SPA (Scintillation Proximity Assay) test in 384-well format. The recombinant 11β-HSD1 protein was produced in the yeast S. cerevisiae. The reaction was carried out by incubating the enzyme in the presence of ^3H-cortisone and of NADPH, in the absence or in the presence of an increasing concentration of inhibitor. SPA beads coupled to an antimouse antibody, which are preincubated with anticortisol antibody, made it possible to measure the amount of cortisol formed during the reaction.
The inhibiting activity with regard to the enzyme 11β-HSD1 is given by the concentration which inhibits 50% of the activity of 11β-HSD1 (IC50).

[2] = molecular target: T2, 11βHSD1 in the eyes (Homo sapiens, UniProt P28845); conditions: healthy volunteers, after treating for seven days; cited from earlier work
T2 construct: host or cells: eyes of healthy volunteers (in vivo)
T2 sequence (P28845 whole entry): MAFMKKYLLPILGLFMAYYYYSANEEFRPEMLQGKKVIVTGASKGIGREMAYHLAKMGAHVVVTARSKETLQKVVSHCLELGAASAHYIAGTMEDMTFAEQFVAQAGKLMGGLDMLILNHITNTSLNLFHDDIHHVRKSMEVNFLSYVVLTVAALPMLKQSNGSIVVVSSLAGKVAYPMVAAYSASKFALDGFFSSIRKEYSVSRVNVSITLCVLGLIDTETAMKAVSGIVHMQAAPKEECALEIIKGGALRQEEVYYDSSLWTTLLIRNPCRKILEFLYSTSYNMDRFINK

T1 sequence (P28845 whole entry, species assumed): as the sequence (P28845 whole entry) above

SMILES | melting point [°C] | IC50 [1] [nM] | reduction of the intraocular pressure (IOP) [2] [%]
O=C(N1CCC(c2nc(-c3c(Cl)cccc3Cl)no2)CC1)N1CCCc2ccccc21 [compound 25, 1-({4-[3-(2,6-Dichlorophenyl)-1,2,4-oxadiazol-5-yl]piperidin-1-yl}carbonyl)-1,2,3,4-tetrahydroquinoline] | 63 to 68 | – | –
Cl.O=C(N1CCC(c2ccncc2)CC1)N1CCCc2ccccc21 [compound 4, 1-[(4-(Pyridin-4-yl)piperidin-1-yl)carbonyl]-1,2,3,4-tetrahydroquinoline Hydrochloride] | 198 | 115 | –
COc1cc(N2CCN(C(=O)N3CCC(c4cn[nH]c4)C3)c3ccccc32)ccc1C(=O)NC1CC1 (centres unmarked) [compound 78] | – | 39 | –
CC1(C)[C@@H](OC(=O)CCC(=O)O)CC[C@]2(C)[C@H]3C(=O)C=C4[C@@H]5C[C@@](C)(C(=O)O)CC[C@]5(C)CC[C@@]4(C)[C@]3(C)CC[C@@H]12 [carbenoxolone] | – | – | 18
Cl.O=C(N1CCC(c2cccnc2)C1)N1CCOc2ccc(CO)cc21 (centres unmarked) | 273 | – | –
CS(=O)(=O)c1ccc(CN2CCN(C(=O)N3CCC(c4cn[nH]c4)C3)c3ccccc32)cc1 (centres unmarked) [compound 161, [4-(4-(Methanesulfonyl)benzyl)-3,4-dihydro-2H-quinoxalin-1-yl][3-(1H-pyrazol-4-yl)pyrrolidin-1-yl]methanone] | 239 | – | –
COc1cc(N2CCN(C(=O)N3CCC(c4cn[nH]c4)C3)c3ccccc32)ccc1C(=O)NC1CC1 (centres unmarked) [compound 178, N-Cyclopropyl-2-methoxy-4-{4-[3-(1H-pyrazol-4-yl)pyrrolidine-1-carbonyl]-3,4-dihydro-2H-quinoxalin-1-yl}benzamide] | 100 | – | –
O=C(N1CCC2(CCCc3ccccc32)CC1)N1CCCc2ccccc21 [compound 18] | 52 to 65 | 43 | –
CC(=O)N1CCN(C(=O)N2CCC(c3cccnc3)C2)c2ccccc21.Cl (centres unmarked) | 201 | – | –
CCCN1CCN(C(=O)N2CCC(c3cccnc3)C2)c2ccccc21 (centres unmarked) [compound 101] | – | 90 | –
CCCCN1CCN(C(=O)N2CCC(c3cccnc3)C2)c2ccccc21.Cl (centres unmarked) | 191 | – | –
N#CC1(c2ccccc2)CCN(C(=O)N2CCCc3ccccc32)CC1 | 53 to 59 | – | –
CCCN1CCN(C(=O)N2CCC(c3cccnc3)C2)c2ccccc21 (centres unmarked) (as salt: HCl) [compound 101] | 121 | – | –
N#Cc1cccc(CN2CCN(C(=O)N3CCC(c4cn[nH]c4)C3)c3ccccc32)c1 (centres unmarked) [compound 162] | 174 | 57 | –
NC(=O)c1ccc(N2CCN(C(=O)N3CCC(c4cn[nH]c4)C3)c3ccccc32)cn1 (centres unmarked) [compound 188] | 90 | 130 | –
O=C(N1CCC2(C=Cc3ccccc32)CC1)N1CCCc2ccccc21 [compound 15, 1′-(3,4-Dihydroquinolin-1(2H)-ylcarbonyl)spiro[indene-1,4′-piperidine]] | 130 to 133 | – | –
O=C(NN1CCCCC1)c1ccc(N2CCN(C(=O)N3CCC(c4cn[nH]c4)C3)c3ccccc32)cc1 (centres unmarked) [compound 172, N-(Piperidin-1-yl)-4-{4-[3-(1H-pyrazol-4-yl)pyrrolidine-1-carbonyl]-3,4-dihydro-2H-quinoxalin-1-yl}benzamide] | 251 | – | –
Cl.O=C(N1CCC(c2cccnc2)C1)N1CCOc2ccccc21 (centres unmarked) | 60 to 90 | – | –
CN(C)C(=O)N1CCN(C(=O)N2CCC(c3cccnc3)C2)c2ccccc21.Cl (centres unmarked) | 181 | – | –
